Laboratory results published in paper PMC5007854, “β-Nitrostyrenes as Potential Anti-leishmanial Agents” (Frontiers in Microbiology, 2016).
Values after ≈ are worked out from the molar mass of the structure shown.

How the values were obtained:
[1] = tested on: L. donovani promastigotes; test: Anti-leishmanial screening at 100 μM, parasite viability by microscopy; assay type: cell-based, Leishmania donovani; conditions: L. donovani promastigotes
Description: L. donovani parasites (MHOM/IN/83/AG83) were maintained in vivo in BALB/c mice. Promastigotes were routinely cultured at 22°C in medium M199 supplemented with 10% heat inactivated fetal bovine serum (FBS, HiMedia Laboratories, Mumbai, India), penicillin 100 (IU/ml), streptomycin (100 μg/ml). Log phase promastigotes were sub-cultured every 72–96 h, the inoculum being 2 × 10^6 cells/ml (Afrin et al., [2002]).
Nitrostyrine series were screened for their antileishmanial activity against L. donovani promastigotes in vitro. Promastigotes of L. donovani (2 × 10^6 cells/mL) in M199 medium were incubated at 22°C for 72 h with each compound at a concentration of 100 μM. Amphotericin B (AmB) served as reference drug, 0.2% DMSO was used as solvent control. Parasites with media alone were taken as control. Parasite viability was determined microscopically after 72 h (Islamuddin et al., [2014b]).

[2] = tested on: Escherichia coli ATCC 25922; test: Broth microdilution antibacterial susceptibility (MIC/MBC); assay type: cell-based; conditions: Escherichia coli; for MIC: ATCC25922, 24 h, broth microdilution, 35°C, 24 h, read-out: MIC, Ec ATCC 25922; for MBC: ATCC25922, ≥99.9% reduction of original inoculum, read-out: MBC, Ec ATCC 25922
Excerpt: (§1) One reference each of the following species was used for their in vitro susceptibility to β-nitrostyrene in this study: Staphylococcus aureus ATCC 29213, Staphylococcus epidermidis ATCC 14990, Escherichia coli ATCC 25922, Pseudomonas aeruginosa ATCC 27853, Candida albicans ATCC 90028, Candida glabrata ATCC 90030, Aspergillus fumigatus ATCC 16424 and Aspergillus niger ATCC 16404. These strains were procured from the American Type Culture Collection (ATCC, Manassas, VA, USA).
(§2) The antibacterial and antifungal activities of the β-nitrostyrenes were performed by broth microdilution methods as per the guidelines of Clinical and Laboratory Standard Institute (Wayne, [1998], [2008a],[b],[c]) by using Mueller-Hinton broth (MHB; Becton-Dickinson, Cockeysville, MD, USA) supplemented with calcium (25 mg/L) and magnesium (12.5 mg/L) for bacterial strains while as RPMI 1640 medium with L-glutamine and without sodium bicarbonate, buffered to pH 7.0 with 0.165 M 3-(N-morpholino) propanesulfonic acid (MOPS; both from Sigma) was used for fungal strains. Stock solutions were prepared in 100% dimethyl sulfoxide (DMSO; Sigma; distilled water was used for ciprofloxacin), with a final DMSO concentration of 1% (vol. per vol.) and two-fold serial dilutions were prepared in media in amounts of 100 μL per well in 96-well U-bottom microtiter plates (Tarsons, Kolkata, India) to yield twice the final concentration required for testing, which ranged from 64 to 0.12 μg/mL for β-nitrostyrenes and 16 to 0.03 μg/mL for ciprofloxacin as well as amphotericin B. Stock inoculum suspensions of the bacteria, Candida species and Aspergillus species were prepared in sterile normal saline (0.85%) containing 0.05% polysorbate 20 (NST) from overnight (3 to 5-day old for Aspergillus species) strains grown on Trypticase soy agar (TSA; Becton-Dickinson) and potato dextrose agar (Difco Laboratories, Detroit, MI, USA) respectively at 35°C. Inocula were verified for each assay by plating onto agar plates for colony enumeration. These suspensions were further diluted in the respective test medium and a 100 μl volume of this diluted inoculum was added to each well of the plate, resulting in a final inoculum concentration of approximately 5 × 10^5 CFU/mL for bacter1ia, (Wayne, [2008a]) approximately 2.5 × 10^4 CFU/ml for Candida species (Pfaller et al., [2004]) while as 0.4 × 10^4 to 5 × 10^4 CFU/mL for Aspergillus species (Wayne, [2008c]). Untreated growth control, vehicle control (DMSO) and sterility control wells were included for each isolate tested. Ciprofloxacin and amphotericin B served as the standard drug controls for bacterial and fungal strains, respectively. The microtiter plates were incubated at 35°C for 24 h for bacterial strains and 48 h for fungal strains. The plates were read visually and the minimum inhibitory concentration (MIC) was defined as the lowest concentration of test sample that prevented visible growth with respect to the growth control.
(§3) The minimum bactericidal concentration (MBC) and minimum fungicidal concentration (MFC) were determined by plating 100 μl volumes on agar plates from the wells showing no visible growth (clear MIC well). The plates were incubated as described above in MIC measurements. […] All experiments were conducted twice in duplicates on separate occasions with freshly prepared inoculums and stock solutions.

[3] = tested on: Pseudomonas aeruginosa ATCC 27853; test: as above; assay type: cell-based; conditions: Pseudomonas aeruginosa; for MIC: ATCC27853, 24 h, broth microdilution, 35°C, 24 h, read-out: MIC, Pa ATCC 27853; for MBC: ATCC27853, ≥99.9% reduction of original inoculum, read-out: MBC, Pa ATCC 27853
Excerpt: as §1, §2, §3

[4] = tested on: Staphylococcus aureus ATCC 29213; test: as above; assay type: cell-based; conditions: Staphylococcus aureus; for MIC: ATCC29213, 24 h, broth microdilution, 35°C, 24 h, read-out: MIC, Sa ATCC 29213; for MBC: ATCC29213, ≥99.9% reduction of original inoculum, read-out: MBC, Sa ATCC 29213
Excerpt: as §1, §2, §3

[5] = tested on: Staphylococcus epidermidis ATCC 14990; test: as above; assay type: cell-based; conditions: Staphylococcus epidermidis; for MIC: ATCC14990, 24 h, broth microdilution, 35°C, 24 h, read-out: MIC, Se ATCC 14990; for MBC: ATCC14990, ≥99.9% reduction of original inoculum, read-out: MBC, Se ATCC 14990
Excerpt: as §1, §2, §3

[6] = tested on: Aspergillus fumigatus ATCC 16424; test: Broth microdilution antifungal susceptibility (MIC/MFC); assay type: cell-based; conditions: Aspergillus fumigatus; for MIC: ATCC16424, 48 h, broth microdilution, 35°C, 48 h, read-out: MIC, Af ATCC 16424; for MFC: ATCC16424, ≥99.9% reduction of original inoculum, read-out: MFC, Af ATCC 16424
Excerpt: as §1, §2, §3

[7] = tested on: Aspergillus niger ATCC 16404; test: as above; assay type: cell-based; conditions: Aspergillus niger; for MIC: ATCC16404, 48 h, broth microdilution, 35°C, 48 h, read-out: MIC, An ATCC 16404; for MFC: ATCC16404, ≥99.9% reduction of original inoculum, read-out: MFC, An ATCC 16404
Excerpt: as §1, §2, §3

[8] = tested on: Candida albicans ATCC 90028; test: as above; assay type: cell-based; conditions: Candida albicans; for MIC: ATCC90028, 48 h, broth microdilution, 35°C, 48 h, read-out: MIC, Ca ATCC 90028; for MFC: ATCC90028, ≥99.9% reduction of original inoculum, read-out: MFC, Ca ATCC 90028
Excerpt: as §1, §2, §3

[9] = tested on: Candida glabrata ATCC 90030; test: as above; assay type: cell-based; conditions: Nakaseomyces glabratus; for MIC: ATCC90030, 48 h, broth microdilution, 35°C, 48 h, read-out: MIC, Cg ATCC 90030; for MFC: ATCC90030, ≥99.9% reduction of original inoculum, read-out: MFC, Cg ATCC 90030
Excerpt: as §1, §2, §3

For CC/C(=C\c1ccc(OC)c(OC)c1)[N+](=O)[O-] [Compound 24, 1,2-dimethoxy-4-((E)-2-nitrobut-1-enyl) benzene], the “Anti-leishmanial activity, in words (SAR discussion)” value [1] was “inactive” and the melting point was 78 to 80 °C.

In the case of C/C(=C\[N+](=O)[O-])c1ccc(O)cc1 [Compound 25, 4-((E)-1-nitroprop-1-en-2-yl)phenol], the “Anti-leishmanial activity, in words (SAR discussion)” value [1] is reported as “loss of activity” and the melting point is reported as 88 to 90 °C.

With C/C(=C\c1c[nH]c2ccccc12)[N+](=O)[O-] [Compound 29, 3-((E)-2-nitroprop-1-enyl)-1H-indole] the MIC [2] was greater than 64 µg/mL, the MBC [2] was greater than 64 µg/mL and the MIC [3] was greater than 64 µg/mL. It also gave an MBC [3] greater than 64 µg/mL, an MIC [4] of 16 µg/mL (≈ 79.1 µM) and an MBC [4] of 16 µg/mL (≈ 79.1 µM). It also gave an MIC [5] of 8 µg/mL (≈ 39.6 µM), an MBC [5] of 8 µg/mL (≈ 39.6 µM) and an MIC [6] of 16 µg/mL (≈ 79.1 µM). It also gave an MFC [6] of 16 µg/mL (≈ 79.1 µM), an MIC [7] of 8 µg/mL (≈ 39.6 µM) and an MFC [7] of 8 µg/mL (≈ 39.6 µM). For the same compound, the MIC [8] was 64 µg/mL (≈ 316 µM), the MFC [8] was 64 µg/mL (≈ 316 µM) and the MIC [9] was 8 µg/mL (≈ 39.6 µM). For the same compound, the MFC [9] was 8 µg/mL (≈ 39.6 µM) and the melting point was 182 to 184 °C.

Work on CC/C(=C\c1c[nH]c2ccccc12)[N+](=O)[O-] [Compound 30, 3-((E)-2-nitrobut-1-enyl)-1H-indole] yielded an MIC [2] of 64 µg/mL (≈ 296 µM), an MBC [2] greater than 64 µg/mL and an MIC [3] greater than 64 µg/mL. For the same compound, the MBC [3] was greater than 64 µg/mL, the MIC [4] was 16 µg/mL (≈ 74 µM) and the MBC [4] was 16 µg/mL (≈ 74 µM). The MIC [5] was 8 µg/mL (≈ 37 µM), the MBC [5] was 8 µg/mL (≈ 37 µM) and the MIC [6] was 64 µg/mL (≈ 296 µM). The MFC [6] was 64 µg/mL (≈ 296 µM), the MIC [7] was 32 µg/mL (≈ 148 µM) and the MFC [7] was 32 µg/mL (≈ 148 µM). For the same compound, the MIC [8] was greater than 64 µg/mL, the MFC [8] was greater than 64 µg/mL and the MIC [9] was 32 µg/mL (≈ 148 µM). For the same compound, the MFC [9] was 64 µg/mL (≈ 296 µM) and the melting point was 64 to 66 °C.
